Assay results from PMC6405875 (Scientific Reports, 2019).
Numbering of substitutions follows the chain as printed. Names and notes keep the numbering of the source.

Key:
hDAT H547A [1] = molecular target: T1, hDAT H547A (Homo sapiens, UniProt Q01959, H547A); details: 1 µM PMA; H547A mutant; cited from earlier work
T1 construct: expressed in transfected cells; host or cells: rat PC12 cells (ATCC CRL-1721), pcDNA3.1+

WT hDAT [2] = molecular target: T2, WT hDAT (Homo sapiens, UniProt Q01959); details: 1 µM PMA; cited from earlier work
T2 construct: expressed in transfected cells; host or cells: rat PC12 cells (ATCC CRL-1721), pcDNA3.1+

hDAT Y88F/H547A [3] = molecular target: T3, hDAT Y88F/H547A (Homo sapiens, UniProt Q01959, H547A/Y88F); assay: [3H]DA uptake in PC12 cells transfected with Y88F/H547A hDAT; assay type: cell-based
T3 construct: expressed in transfected cells; host or cells: rat PC12 cells (ATCC CRL-1721), pcDNA3.1+
T3 sequence (Q01959 1-620 Y88F/H547A): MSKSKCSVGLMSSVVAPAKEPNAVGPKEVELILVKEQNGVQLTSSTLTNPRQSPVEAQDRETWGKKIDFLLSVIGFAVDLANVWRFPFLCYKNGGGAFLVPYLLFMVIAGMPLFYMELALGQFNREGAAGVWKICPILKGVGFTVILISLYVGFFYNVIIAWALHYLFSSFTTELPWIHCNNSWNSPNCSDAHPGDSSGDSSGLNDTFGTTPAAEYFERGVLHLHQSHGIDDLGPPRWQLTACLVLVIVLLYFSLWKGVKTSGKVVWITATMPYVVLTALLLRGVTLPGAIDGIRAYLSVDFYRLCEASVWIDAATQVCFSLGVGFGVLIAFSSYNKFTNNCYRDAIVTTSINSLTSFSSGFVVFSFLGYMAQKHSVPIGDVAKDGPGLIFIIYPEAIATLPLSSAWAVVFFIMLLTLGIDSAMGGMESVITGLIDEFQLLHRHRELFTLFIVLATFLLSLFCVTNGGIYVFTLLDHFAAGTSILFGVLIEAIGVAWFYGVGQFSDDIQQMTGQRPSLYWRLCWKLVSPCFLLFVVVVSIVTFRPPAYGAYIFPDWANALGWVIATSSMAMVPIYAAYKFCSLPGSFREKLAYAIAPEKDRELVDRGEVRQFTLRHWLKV
Experimental: (§1) In the current study, we used rat pheochromocytoma cells (PC12 cells, CRL-1721, American Type Culture Collection (ATCC), Manassas, VA), which were maintained in Dulbecco’s modified eagle medium (DMEM, Life Technologies, Carlsbad, CA) supplemented with 15% horse serum, 2.5% bovine calf serum, 2 mM glutamine and antibiotics, 100 U/mL penicillin and 100 µg/mL streptomycin. Cells were cultured at 37 °C in a 5% CO2 incubator. Once cells were growing to 100% confluence on plates, cells were seeded at a density of 1 × 10^5 cells/cm^2 in 24-well plates and transfected with WT hDAT or mutants by Lipofectamine 2000 (Life Technologies). Twenty-four hours after transfection, intact cells or cell suspensions were used for experiments.
(§2) Twenty-four hours after transfection, cells in 24-well plates were washed twice with Krebs-Ringer-HEPES (KRH) buffer (final concentration in mM: 125 NaCl, 5 KCl, 1.5 MgSO4, 1.25 CaCl2, 1.5 KH2PO4, 10 D-glucose, 25 HEPES, 0.1 EDTA, 0.1 pargyline, and 0.1 L-ascorbic acid; pH 7.4) and incubated with nomifensine (10 µM, final concentration) as nonspecific uptake for 10 min at room temperature. […] The reaction was terminated by removal of solution from wells and quickly washed three times with ice cold KRH buffer. Cells were then lysed in 500 μL of 1% SDS for an hour and radioactivity was measured using a liquid scintillation counter (Tri-Carb 2900TR; PerkinElmer Life and Analytical Sciences, Waltham, MA).
(§3) In brief, cells were dissociated with trypsin/EDTA (0.25%/0.1%, 1 mL for one 10 cm dish) and resuspended in culture medium and incubated at room temperature for 10 min. The dissociated cells were collected by centrifugation at 400 × g for 5 min at 4 °C and washed once with phosphate-buffered saline followed by additional 5 min centrifugation (400 × g, 4 °C). Finally, the resulted cell pellets were resuspended in KRH assay buffer. […] The update reaction was terminated by immediate filtration through Whatman GF/B glass filters (presoaked with 1 mM pyrocatechol for 3 h) followed by three washes with 3 mL of ice-cold KRH buffer containing pyrocatechol using a Brandel cell harvester (model M-48; Brandel Inc., Gaithersburg, MD). Radioactivity was determined as described above.

WT hDAT [4] = molecular target: T2, WT hDAT; assay: [3H]DA uptake in PC12 cells transfected with WT hDAT; assay type: cell-based
Experimental: as §1, §2, §3

hDAT Y88A = molecular target: T4, hDAT Y88A (Homo sapiens, UniProt Q01959, Y88A); assay: AMPH-stimulated [3H]DA efflux, Y88A hDAT; assay type: cell-based; details: AMPH 5–250 µM, fractional release of cellular [3H]DA
T4 construct: expressed in transfected cells; host or cells: rat PC12 cells (ATCC CRL-1721)
T4 sequence (Q01959 1-620 Y88A): T3 sequence (Q01959 1-620 Y88F/H547A) with F88A, A547H
Experimental: as §1

hDAT Y88F/H547A [5] = molecular target: T3, hDAT Y88F/H547A; assay: AMPH-stimulated [3H]DA efflux, Y88F/H547A hDAT; assay type: cell-based; set-up: unit not given here; details: AMPH 5–250 µM, fractional release of cellular [3H]DA
hDAT H547A [6] = molecular target: T1, hDAT H547A; assay: AMPH-stimulated [3H]DA efflux, H547A hDAT; assay type: cell-based; details: AMPH 5–250 µM, fractional release of cellular [3H]DA
Experimental: as §1

WT hDAT [7] = molecular target: T2, WT hDAT; assay: AMPH-stimulated [3H]DA efflux, WT hDAT; assay type: cell-based; details: AMPH 5–250 µM, fractional release of cellular [3H]DA
Experimental: as §1

hDAT Y88F = molecular target: T5, hDAT Y88F (Homo sapiens, UniProt Q01959, Y88F); assay: AMPH-stimulated [3H]DA efflux, Y88F hDAT; assay type: cell-based; details: AMPH 5–250 µM, fractional release of cellular [3H]DA
T5 construct: expressed in transfected cells; host or cells: rat PC12 cells (ATCC CRL-1721), pcDNA3.1+
T5 sequence (Q01959 1-620 Y88F): T3 sequence (Q01959 1-620 Y88F/H547A) with A547H
Experimental: as §1

hDAT Y88F/K92M/H547A = molecular target: T6, hDAT Y88F/K92M/H547A (Homo sapiens, UniProt Q01959, H547A/K92M/Y88F)
T6 sequence (Q01959 1-620 Y88F/K92M/H547A): T3 sequence (Q01959 1-620 Y88F/H547A) with K92M
Experimental: as §1
Twenty-four hours after transfection, cells in 24-well plates were washed twice with Krebs-Ringer-HEPES (KRH) buffer (final concentration in mM: 125 NaCl, 5 KCl, 1.5 MgSO4, 1.25 CaCl2, 1.5 KH2PO4, 10 D-glucose, 25 HEPES, 0.1 EDTA, 0.1 pargyline, and 0.1 L-ascorbic acid; pH 7.4) and incubated with nomifensine (10 µM, final concentration) as nonspecific uptake for 10 min at room temperature. […] Cells were then lysed in 500 μL of 1% SDS for an hour and radioactivity was measured using a liquid scintillation counter (Tri-Carb 2900TR; PerkinElmer Life and Analytical Sciences, Waltham, MA).

hDAT Y88F/H547A [8] = molecular target: T3, hDAT Y88F/H547A; assay: [3H]WIN 35,428 binding in intact PC12 cells transfected with Y88F/H547A hDAT; details: Zn2+ 10 and 100 µM
WT hDAT [9] = molecular target: T2, WT hDAT; assay: [3H]WIN 35,428 binding in intact PC12 cells transfected with WT hDAT
[10] = substrate: NCCc1ccc(O)c(O)c1; assay: cells, lysate or membranes; details: other: PC12 cells, Y88F/H547A; pH 7.4; 37.0 °C

T2 sequence (Q01959 whole entry): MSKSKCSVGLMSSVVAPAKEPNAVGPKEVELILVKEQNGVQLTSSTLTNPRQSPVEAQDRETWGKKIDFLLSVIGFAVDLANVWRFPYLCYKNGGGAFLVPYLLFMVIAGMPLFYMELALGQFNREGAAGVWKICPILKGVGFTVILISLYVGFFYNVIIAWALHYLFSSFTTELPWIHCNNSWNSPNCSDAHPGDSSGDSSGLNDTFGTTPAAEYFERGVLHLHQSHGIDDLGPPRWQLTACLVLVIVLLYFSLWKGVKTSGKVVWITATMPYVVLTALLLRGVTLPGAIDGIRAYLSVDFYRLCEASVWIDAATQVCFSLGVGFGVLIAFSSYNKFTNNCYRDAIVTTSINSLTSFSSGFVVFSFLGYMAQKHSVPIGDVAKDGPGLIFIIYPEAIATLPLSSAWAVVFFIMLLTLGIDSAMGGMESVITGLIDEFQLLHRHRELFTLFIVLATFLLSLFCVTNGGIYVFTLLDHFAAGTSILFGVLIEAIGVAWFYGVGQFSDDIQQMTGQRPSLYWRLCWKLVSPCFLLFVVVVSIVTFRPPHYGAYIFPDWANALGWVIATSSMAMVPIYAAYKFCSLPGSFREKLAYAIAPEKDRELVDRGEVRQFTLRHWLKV
T1 sequence (Q01959 whole entry H547A): as the sequence (Q01959 whole entry) above, with H547A counted along it

For `CCCCCCCCCCCCCC(=O)O[C@@H]1[C@@H](C)[C@@]2(O)[C@@H](C=C(CO)C[C@]3(O)C(=O)C(C)=C[C@@H]23)[C@@H]2C(C)(C)[C@]12OC(C)=O` [PMA, phorbol 12-myristate 13-acetate], the “Decrease in Vmax of DA uptake vs control” value (hDAT H547A [1]) is given as 60%, the “Decrease in Vmax of DA uptake vs control” value (WT hDAT [2]) is given as 40% and the “Reduction of Km of [3H]DA uptake vs control” value (hDAT Y88F/H547A [3]) is given as 63%. The “Reduction of Vmax of [3H]DA uptake vs vehicle control” value (hDAT Y88F/H547A [3]) was 60%, the “Reduction of Km of [3H]DA uptake vs control” value (WT hDAT [4]) was 53% and the “Reduction of Vmax of [3H]DA uptake vs vehicle control” value (WT hDAT [4]) was 51%.

For `CC(N)Cc1ccccc1` (centres unmarked) [AMPH, amphetamine], the “Vmax of AMPH-stimulated [3H]DA efflux” value (hDAT Y88A) was 0.29 ± 0.01, the “Vmax of AMPH-stimulated [3H]DA efflux” value (hDAT Y88F/H547A [5]) was 0.20 ± 0.03 and the “Vmax of AMPH-stimulated [3H]DA efflux” value (hDAT H547A [6]) was 0.22 ± 0.04. The “Vmax of AMPH-stimulated [3H]DA efflux” value (WT hDAT [7]) was 0.42 ± 0.03, the “Vmax of AMPH-stimulated [3H]DA efflux” value (hDAT Y88F) was 0.28 ± 0.06 and the “AMPH-induced decrease of Vmax of [3H]DA uptake vs control” value (hDAT Y88F/H547A [3]; AMPH 1 µM, Y88F/H547A) was 42%. The “Vmax of [3H]DA uptake in presence of AMPH” value (hDAT Y88F/H547A [3]; AMPH 1 µM, Y88F/H547A) was 10.9 ± 1.33 pmol/min/10^5 cells, the “AMPH-induced decrease of Vmax of [3H]DA uptake vs control” value (WT hDAT [4]; AMPH 1 µM, WT hDAT) was 32% and the “Vmax of [3H]DA uptake in presence of AMPH” value (WT hDAT [4]; AMPH 1 µM, WT hDAT) was 7.80 ± 0.97 pmol/min/10^5 cells.

In the case of `NCCc1ccc(O)c(O)c1` [DA, Dopamine], the “Vmax of [3H]DA uptake” value (hDAT Y88F/K92M/H547A; PC12 cells) is reported as 0.5 ± 0.31 pmol/min/10^5 cells, the Km (hDAT Y88F/K92M/H547A; read-out: Km of [3H]DA uptake, PC12 cells) is reported as 1.89 ± 1.25 µM and the “Vmax of [3H]DA uptake” value (hDAT Y88F/H547A [3]; AMPH experiment, in the absence of AMPH, Y88F/H547A) is reported as 18.9 ± 2.81 pmol/min/10^5 cells. The “Vmax of [3H]DA uptake” value (hDAT Y88F/H547A [3]; PC12 cells, Y88F/H547A) was 24.06 ± 4.32 pmol/min/10^5 cells, the “Vmax of [3H]DA uptake” value (WT hDAT [4]; AMPH experiment, in the absence of AMPH, WT hDAT) was 11.5 ± 0.94 pmol/min/10^5 cells and the Km (WT hDAT [4]; PC12 cells, WT hDAT) was 1.21 ± 0.17 µM. The “Vmax of [3H]DA uptake” value (WT hDAT [4]; PC12 cells, WT hDAT) was 12.52 ± 0.68 pmol/min/10^5 cells.

With `[Cl-].[Cl-].[Zn+2]` [Zn^2+, ZnCl2] the “Zn2+-induced increase in [3H]WIN 35,428 binding compared with WT hDAT” value (hDAT Y88F/H547A [8]) was “significantly diminished”, the “Increase of [3H]WIN35,428 binding vs control (absence of Zn2+)” value (WT hDAT [9]; Zn2+ 10 µM) was 49% and the “Increase of [3H]WIN35,428 binding vs control (absence of Zn2+)” value (WT hDAT [9]; Zn2+ 100 µM) was 69%. For the same molecule, the “Reduction of [3H]DA uptake vs control (absence of Zn2+)” value (“Reduction of [3H]DA uptake vs control” for short) (hDAT Y88F/H547A [3]; Zn2+ 10 µM, Y88F/H547A) was 60%, the “Reduction of [3H]DA uptake vs control” value (hDAT Y88F/H547A [3]; Zn2+ 100 µM, Y88F/H547A) was 71% and the “Reduction of [3H]DA uptake vs control” value (WT hDAT [4]; Zn2+ 10 µM, WT hDAT) was ~ 40%. For the same molecule, the “Reduction of [3H]DA uptake vs control” value (WT hDAT [4]; Zn2+ 100 µM, WT hDAT) was ~ 40%.

With “rTat1–86: recombinant HIV-1 transactivator of transcription protein, residues 1–86 (Diatheva)” the “Tat-induced reduction of [3H]DA uptake relative to control” value (hDAT Y88F/H547A [3]; 140 nM rTat1–86, 20 min preincubation, Y88F/H547A, p > 0.05 vs control) was “attenuated” and the “Reduction of specific [3H]DA uptake relative to control” value (WT hDAT [4]; 140 nM rTat1–86, 20 min preincubation, WT hDAT) was 31%.

B1: hDAT Y88F/H547A (Homo sapiens; H547A/Y88F) (protein)
chain: T3 sequence (Q01959 1-620 Y88F/H547A)
With B1 the Km [10] was 4.25 ± 1.05 µM.
